Test results reported in patent US9695155B2, “Herbicidal substituted pyrimidinyloxy benzene compounds” (E. I. DU PONT DE NEMOURS AND COMPANY, priority 2013, dated 2017).

Assays:
wheat = experiment: Test A postemergence; assay type: in vivo, Triticum aestivum; settings: 1000 g ai/ha, 0 to 100 scale, 0 no effect, 100 complete control
Method in brief: (§1)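 Greenhouse pot test, loam/sand soil. Formulation: non-phytotoxic solvent mix plus surfactant. Pre: directed spray onto soil after sowing. Post: plants at 1–2 leaf, 2–10 cm. Rated visually vs untreated controls at ~10 d, 0 (no effect) to 100 (complete control).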

yellow nutsedge = experiment: Test C postemergence; assay type: in vivo, Cyperus esculentus; settings: postemergence, 0 is no effect, 100 is complete control
Method in brief: (§2)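 Whole-plant greenhouse test with surfactant-containing solvent formulation, applied preemergence to sown loam–sand pots or postemergence to 2–18 cm plants. Scored by eye 13 to 15 days on, 0–100 scale.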

velvetleaf = experiment: Test A postemergence; assay type: in vivo, Abutilon theophrasti; settings: 1000 g ai/ha, 0 to 100 scale, 0 no effect, 100 complete control
Method in brief: as §1

morningglory = experiment: Test C postemergence; assay type: in vivo, Ipomoea coccinea; settings: postemergence, 0 is no effect, 100 is complete control
Method in brief: as §2

barnyardgrass = experiment: Test A postemergence; assay type: in vivo, Echinochloa crus-galli; settings: 1000 g ai/ha, 0 to 100 scale, 0 no effect, 100 complete control
Method in brief: as §1

giant foxtail [1] = experiment: Test A preemergence; assay type: in vivo, Setaria faberii; settings: 1000 g ai/ha, 0 to 100 scale, 0 no effect, 100 complete control, approx. 10 days
Method in brief: as §1

ragweed = experiment: Test C postemergence; assay type: in vivo, Ambrosia elatior; settings: postemergence, 0 is no effect, 100 is complete control
Method in brief: as §2

sedge, umbrella = experiment: Test B flooded paddy test; assay type: in vivo, Cyperus difformis; settings: Flood, 250 g ai/ha; 0 to 100 scale where 0 is no effect and 100 is complete control
Method in brief: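 Flooded to 3 cm at the 2-leaf stage, pots received compound through the paddy water and were kept at that depth under greenhouse conditions. After 13–15 days, effect was rated by eye relative to controls, 0 = none and 100 = complete control.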

giant foxtail [2] = experiment: Test C postemergence; assay type: in vivo, Setaria faberii; settings: postemergence, 0 is no effect, 100 is complete control
Method in brief: as §2

galium = experiment: Test C postemergence; assay type: in vivo, Galium aparine; settings: postemergence, 0 is no effect, 100 is complete control
Method in brief: as §2

wheat, winter = experiment: Test C postemergence; assay type: in vivo, Triticum aestivum; settings: postemergence, 0 is no effect, 100 is complete control
Method in brief: as §2

Question: Which “Plant response rating, Wheat” value (wheat) does the source give for CC(=NO)c1cn(-c2c(Br)cccc2Oc2ncc(Cl)cn2)nn1 [Compound 115] here?
Answer: The value was 90.

Question: And the “Plant response rating (0 to 100), Nutsedge, Yellow” value (yellow nutsedge; 8 g ai/ha)?
Answer: The value was 0.

Question: What about the “Plant response rating (0 to 100), Nutsedge, Yellow” value (yellow nutsedge; 16 g ai/ha) of the same molecule?
Answer: The value was 0.

Question: What about the “Plant response rating, Velvetleaf” value (velvetleaf) of the same molecule?
Answer: The value was 100.

Question: And the “Plant response rating (0 to 100), Morningglory” value (morningglory; 8 g ai/ha)?
Answer: Its value is 0.

Question: And the “Plant response rating (0 to 100), Morningglory” value (morningglory; 16 g ai/ha)?
Answer: The value was 40.

Question: And the “Plant response rating, Barnyardgrass” value (barnyardgrass)?
Answer: Its value is 90.

Question: And the “Foxtail, Giant plant response rating” value (giant foxtail [1])?
Answer: The value was 100.

Question: What about the “Plant response rating (0 to 100), Ragweed” value (ragweed; 8 g ai/ha) of the same molecule?
Answer: The value was 5.

Question: What about the “Plant response rating (0 to 100), Ragweed” value (ragweed; 16 g ai/ha) of the same molecule?
Answer: Its value is 5.

Question: What about the “Plant response rating, Sedge, Umbrella” value (sedge, umbrella) of the same molecule?
Answer: The value was 20.

Question: And the “Plant response rating (0 to 100), Foxtail, Giant” value (giant foxtail [2]; 8 g ai/ha)?
Answer: Its value is 5.

Question: And the “Plant response rating (0 to 100), Foxtail, Giant” value (giant foxtail [2]; 16 g ai/ha)?
Answer: Its value is 5.

Question: And the “Plant response rating (0 to 100), Galium” value (galium; 8 g ai/ha)?
Answer: The value was 5.

Question: What about the “Plant response rating (0 to 100), Galium” value (galium; 16 g ai/ha) of the same molecule?
Answer: Its value is 40.

Question: What about the “Plant response rating (0 to 100), Wheat” value (wheat, winter; 8 g ai/ha) of the same molecule?
Answer: The value was 0.

Question: What about the “Plant response rating (0 to 100), Wheat” value (wheat, winter; 16 g ai/ha) of the same molecule?
Answer: The value was 0.
